Measured values reported in US6613772B1, “Substituted 2-aryl-4-amino-chinazolines, method for the production and use thereof as medicaments” (Aventis Pharma Deutschland GmbH, priority 1997, dated 2003).

SMILES | melting point
COc1cc2nc(-c3ccc(Cl)cc3)nc(NCCN(C(C)C)C(C)C)c2cc1OC.Cl.Cl | 246 °C
COc1cc2nc(-c3ccc(Cl)cc3)nc(N3CCN(Cc4ccccc4)CC3)c2cc1OC.Cl.Cl | 225 °C
COc1cccc(CNc2nc(-c3ccc(C)cc3)nc3cc(OC)c(OC)cc23)c1.Cl | 278 °C
COc1cccc(CCNc2nc(-c3ccc(C)cc3)nc3cc(OC)c(OC)cc23)c1.Cl | 256 °C
COc1cc2c(NCCO)nc(-c3ccc(Cl)cc3)nc2c(OC)c1OC.Cl | 202 °C
COc1ccccc1N1CCN(c2nc(-c3ccc(Cl)cc3)nc3c(OC)c(OC)c(OC)cc23)CC1 [Example 10, 2-(4-Chlorophenyl)-4-(4-(2-methoxyphenyl)piperazino)-6,7,8-trimethoxyquinazoline] | 157 °C
COc1cc2nc(-c3ccc(Cl)cc3)nc(NCCCn3ccnc3)c2cc1OC [Example 21, 2-(4-Chlorophenyl)-4-(3-(1-imidazolyl)propylamino)-6,7-dimethoxyquinazoline] | 242 °C
COc1cc2nc(-c3ccc(Cl)cc3)nc(NC3CCN(Cc4ccccc4)CC3)c2cc1OC [Example 22, 2-(4-Chlorophenyl)-4-((1-benzylpiperidin-4-yl)amino)-6,7-dimethoxyquinazoline] | 252 °C
COc1cc2nc(-c3ccc(Cl)cc3)nc(NC3CC(C)(C)NC(C)(C)C3)c2cc1OC [Example 26, 2-(4-Chlorophenyl)-4-((2,2,6,6-tetramethylpiperidin-4-yl)amino)-6,7-dimethoxyquinazoline] | 231 °C
COc1cc2nc(-c3ccc(Cl)cc3)nc(NCCCN3CCCC3=O)c2cc1OC [Example 27, 2-(4-Chlorophenyl)-4-(3-(2-oxopyrrolidino)propylamino)-6,7-dimethoxyquinazoline] | 210 °C
COc1cc2nc(-c3ccc(Cl)cc3)nc(N3CCN(CC(=O)N4CCOCC4)CC3)c2cc1OC [Example 30, 2-(4-Chlorophenyl)-4-(4-(morpholinocarbonylmethyl)piperazino)-6,7-dimethoxyquinazoline] | 198 °C
COc1cc2nc(-c3ccc(Cl)cc3)nc(NCC(=O)O)c2cc1OC [Example 34, N-(2-(4-Chlorophenyl)-6,7-dimethoxyquinazolin-4-yl)aminoacetic Acid] | 270 °C (dec.)
COc1cc2nc(-c3ccc(C)cc3)nc(NCCN(C(C)C)C(C)C)c2cc1OC [Example 40, 2-(4-Methylphenyl)-4-(2-diisopropylaminoethylamino)-6,7-dimethoxyquinazoline] | 81 °C
COc1cc2nc(-c3ccc(Cl)cc3)nc(N(C)CCO)c2cc1OC [Example 41, 2-(4-Chlorophenyl)-4-(N-(2-hydroxyethyl)-N-methylamino)-6,7-dimethoxyquinazoline] | 129 °C
COc1cc2nc(-c3ccc(C(F)(F)F)cc3)nc(N3CCN(CCO)CC3)c2cc1OC [Example 43, 2-(4-Trifluoromethylphenyl)-4-(4-(2-hydroxyethyl)piperazino)-6,7-dimethoxyquinazoline] | 176 °C
COc1cc2nc(-c3ccc(C(F)(F)F)cc3)nc(N3CCN(C)CC3)c2cc1OC [Example 45, 2-(4-Trifluoromethylphenyl)-4-(4-methylpiperazino)-6,7-dimethoxyquinazoline] | 139 °C
COc1cc2nc(-c3ccc(Cl)cc3)nc(NCCc3ccc(Oc4ccccc4)cc3)c2cc1OC [Example 46, 2-(4-Chlorophenyl)-4-(2-(4-phenoxyphenyl)ethylamino)-6,7-dimethoxyquinazoline] | 216 °C
COC(=O)CNc1nc(-c2ccc(Cl)cc2)nc2cc(OC)c(OC)cc12 [Example 47, 2-(4-Chlorophenyl)-4-((methoxycarbonylmethyl)amino)-6,7-dimethoxyquinazoline] | 196 °C
COc1cc2nc(-c3ccc(Cl)cc3)nc(N3CCOCC3)c2cc1OC [Example 48, 2-(4-Chlorophenyl)-4-morpholino-6,7-dimethoxyquinazoline] | 178 °C
COc1cc2nc(-c3ccc(C)cc3)nc(N3CCOCC3)c2cc1OC [Example 49, 2-(4-Methylphenyl)-4-morpholino-6,7-dimethoxyquinazoline] | 200 °C
COc1cc2nc(-c3ccc(C(F)(F)F)cc3)nc(N3CCOCC3)c2cc1OC [Example 50, 2-(4-Trifluoromethylphenyl)-4-morpholino-6,7-dimethoxyquinazoline] | 207 °C
COc1cc2nc(-c3ccc(C)cc3)nc(NCc3ccncc3)c2cc1OC [Example 51, 2-(4-Methylphenyl)-4-((4-pyridylmethyl)amino)-6,7-dimethoxyquinazoline] | 208 °C
COc1cc2nc(-c3ccc(C)cc3)nc(NCc3ccccn3)c2cc1OC [Example 52, 2-(4-Methylphenyl)-4-((2-pyridylmethyl)amino)-6,7-dimethoxyquinazoline] | 196 °C

SMILES | melting point
COc1cc2nc(-c3ccc(C)cc3)nc(NCCc3ccccn3)c2cc1OC [Example 53, 2-(4-Methylphenyl)-4-((2-(2-pyridyl)ethyl)amino)-6,7-dimethoxyquinazoline] | 204 °C
COc1cc2c(NCc3cccnc3)nc(-c3ccc(Cl)cc3)nc2c(OC)c1OC [Example 54, 2-(4-Chlorophenyl)-4-((3-pyridylmethyl)amino)-6,7,8-trimethoxyquinazoline] | 262 °C
COc1cc2c(N3CCOCC3)nc(-c3ccc(Cl)cc3)nc2c(OC)c1OC [Example 55, 2-(4-Chlorophenyl)-4-morpholino-6,7,8-trimethoxyquinazoline] | 153 °C
COc1cc2c(N3CCNCC3)nc(-c3ccc(Cl)cc3)nc2c(OC)c1OC [Example 56, 2-(4-Chlorophenyl)-4-piperazino-6,7,8-trimethoxyquinazoline] | 156 °C
COc1cc2c(NCCO)nc(-c3ccc(Cl)cc3)nc2c(OC)c1OC [Example 57, 2-(4-Chlorophenyl)-4-(2-hydroxyethylamino)-6,7,8-trimethoxyquinazoline] | 202 °C
COCCNc1nc(-c2ccc(Cl)cc2)nc2c(OC)c(OC)c(OC)cc12 [Example 58, 2-(4-Chlorophenyl)-4-(2-methoxyethylamino)-6,7,8-trimethoxyquinazoline] | 165 °C
COc1cc2c(NCCCn3ccnc3)nc(-c3ccc(Cl)cc3)nc2c(OC)c1OC [Example 59, 2-(4-Chlorophenyl)-4-(3-(1-imidazolyl)propylamino)-6,7,8-trimethoxyquinazoline] | 245 °C
COc1cc2c(N3CCN(C)CC3)nc(-c3cc(C(F)(F)F)cc(C(F)(F)F)c3)nc2c(OC)c1OC [Example 62, 2-(3,5-Bistrifluoromethylphenyl)-4-(4-methylpiperazino)-6,7,8-trimethoxyquinazoline] | 176 °C
COc1cc2c(NCCN(C(C)C)C(C)C)nc(-c3cc(C(F)(F)F)cc(C(F)(F)F)c3)nc2c(OC)c1OC [Example 63, 2-(3,5-Bistrifluoromethylphenyl)-4-(2-diisopropylaminoethylamino)-6,7,8-trimethoxyquinazoline] | 128 °C
COc1cc2c(N3CCOCC3)nc(-c3cc(C(F)(F)F)cc(C(F)(F)F)c3)nc2c(OC)c1OC [Example 64, 2-(3,5-Bistrifluoromethylphenyl)-4-morpholino-6,7,8-trimethoxyquinazoline] | 170 °C
COc1cc2c(NCc3cccnc3)nc(-c3cc(C(F)(F)F)cc(C(F)(F)F)c3)nc2c(OC)c1OC [Example 65, 2-(3,5-Bistrifluoromethylphenyl)-4-((3-pyridylmethyl)amino)-6,7,8-trimethoxyquinazoline] | 229 °C
COc1cc2c(N3CCSCC3)nc(-c3ccc(Cl)cc3)nc2c(OC)c1OC [Example 66, 2-(4-Chlorophenyl)-4-thiomorpholino-6,7,8-trimethoxyquinazoline] | 174 °C
COc1cc2c(N3CC[S+]([O-])CC3)nc(-c3ccc(Cl)cc3)nc2c(OC)c1OC [Example 68, 2-(4-Chlorophenyl)-4-(1-oxothiomorpholino)-6,7,8-trimethoxyquinazoline] | 198 °C
COc1cc2c(N3CCS(=O)(=O)CC3)nc(-c3ccc(Cl)cc3)nc2c(OC)c1OC [Example 69, 2-(4-Chlorophenyl)-4-(1,1-dioxothiomorpholino)-6,7,8-trimethoxyquinazoline] | 241 °C
COc1cc2nc(-c3ccc(C)cc3)nc(NCc3cccc([N+](=O)[O-])c3)c2cc1OC [Example 72, 2-(4-Methylphenyl)-4-((3-nitrophenylmethyl)amino)-6,7-dimethoxyquinazoline] | 250 °C
COc1ccccc1CCNc1nc(-c2ccc(C)cc2)nc2cc(OC)c(OC)cc12 [Example 73, 2-(4-Methylphenyl)-4-(2-(2-methoxyphenyl)ethylamino)-6,7-dimethoxyquinazoline] | 205 °C
COc1cc2nc(-c3ccc(Cl)cc3)nc(N3CCSCC3)c2cc1OC [Example 74, 2-(4-Chlorophenyl)-4-thiomorpholino-6,7-dimethoxyquinazoline] | 214 °C
COc1cc2nc(-c3ccc(C)cc3)nc(N3CCSCC3)c2cc1OC [Example 75, 2-(4-Methylphenyl)-4-thiomorpholino-6,7-dimethoxyquinazoline] | 213 °C
COc1cc2nc(-c3ccc(Cl)cc3)nc(N3CC[S+]([O-])CC3)c2cc1OC [Example 76, 2-(4-Chlorophenyl)-4-(1-oxothiomorpholino)-6,7-dimethoxyquinazoline] | 226 °C
COc1cc2nc(-c3ccc(C)cc3)nc(N3CC[S+]([O-])CC3)c2cc1OC [Example 77, 2-(4-Methylphenyl)-4-(1-oxothiomorpholino)-6,7-dimethoxyquinazoline] | 216 °C
COc1cc2c(N3CCN(c4ccccn4)CC3)nc(-c3ccc(Cl)cc3)nc2c(OC)c1OC [Example 78, 2-(4-Chlorophenyl)-4-(4-(2-pyridyl)piperazino)-6,7,8-trimethoxyquinazoline] | 141 °C
CCCN(CCC)c1nc(-c2ccc(Cl)cc2)nc2c(OC)c(OC)c(OC)cc12 [Example 80, 2-(4-Chlorophenyl)-4-dipropylamino-6,7,8-trimethoxyquinazoline] | 109 °C
